# Results published in publication PMC12349723, “Computationally accelerated identification of P-glycoprotein inhibitors” (PLOS One, 2025).
# Values joined by “and” are separate entries in the source; they are usually repeats but may differ in a detail not shown here. Equal entries are not always repeated. “Also recorded” adds a separate entry of the source.
# How the values were obtained:
# P-gp = molecular target: T1, P-gp (Homo sapiens, UniProt P08183); test: Daunorubicin accumulation (fluorescence) assay in DU145-TXR cells; assay type: cell-based; settings: for Significance (DAU + compound vs DAU alone): Student's T test of the mean; for Effect on DAU fluorescence / intracellular DAU retention: DU145-TXR, 10 µM compound + 10 µM DAU, 2 h
# T1 construct: The MDR, P-gp overexpressing DU145-TXR cells were maintained under positive selection pressure; endogenous in cells; host or cells: DU145-TXR (paclitaxel-resistant sub-line of DU145 human prostate cancer cells)
# T1 sequence (P08183 whole entry): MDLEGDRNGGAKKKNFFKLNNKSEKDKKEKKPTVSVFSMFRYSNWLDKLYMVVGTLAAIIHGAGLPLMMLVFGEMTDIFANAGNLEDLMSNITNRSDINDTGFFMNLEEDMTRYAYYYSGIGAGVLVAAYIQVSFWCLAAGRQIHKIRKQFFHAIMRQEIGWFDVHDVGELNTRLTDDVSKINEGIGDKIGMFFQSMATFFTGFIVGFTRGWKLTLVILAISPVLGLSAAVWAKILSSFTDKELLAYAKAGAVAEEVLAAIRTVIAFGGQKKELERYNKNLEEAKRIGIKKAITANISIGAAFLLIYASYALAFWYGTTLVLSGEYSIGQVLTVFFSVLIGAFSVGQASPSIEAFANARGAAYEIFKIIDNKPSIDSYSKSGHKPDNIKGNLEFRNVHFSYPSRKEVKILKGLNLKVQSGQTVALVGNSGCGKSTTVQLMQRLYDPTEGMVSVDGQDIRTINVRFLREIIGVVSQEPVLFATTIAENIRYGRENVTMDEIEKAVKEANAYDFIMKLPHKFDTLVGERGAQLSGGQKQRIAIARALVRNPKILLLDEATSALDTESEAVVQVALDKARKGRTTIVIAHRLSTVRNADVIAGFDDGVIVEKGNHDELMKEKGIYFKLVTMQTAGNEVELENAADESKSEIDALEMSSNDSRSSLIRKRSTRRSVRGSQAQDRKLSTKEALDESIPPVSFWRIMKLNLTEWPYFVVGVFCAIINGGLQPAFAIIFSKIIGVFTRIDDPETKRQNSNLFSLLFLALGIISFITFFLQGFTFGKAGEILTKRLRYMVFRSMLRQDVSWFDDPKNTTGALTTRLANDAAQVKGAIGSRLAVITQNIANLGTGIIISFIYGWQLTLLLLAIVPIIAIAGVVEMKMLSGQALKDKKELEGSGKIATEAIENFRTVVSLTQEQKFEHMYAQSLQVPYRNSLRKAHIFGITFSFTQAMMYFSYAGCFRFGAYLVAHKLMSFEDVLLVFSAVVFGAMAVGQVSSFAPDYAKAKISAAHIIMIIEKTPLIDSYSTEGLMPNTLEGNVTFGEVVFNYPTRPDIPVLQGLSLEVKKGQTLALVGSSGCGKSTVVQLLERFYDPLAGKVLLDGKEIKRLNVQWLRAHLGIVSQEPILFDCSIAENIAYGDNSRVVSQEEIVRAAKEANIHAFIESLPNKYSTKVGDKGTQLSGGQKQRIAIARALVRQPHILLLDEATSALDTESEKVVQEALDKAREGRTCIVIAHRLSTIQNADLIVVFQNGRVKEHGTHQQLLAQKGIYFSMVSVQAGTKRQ
# Experimental: These assays are based upon those reported in [9]. DU145-TXR cells were seeded in 96 well plates in complete RPMI medium at 15,000 cells per well. Cells were allowed to grow for 48 hours in a humidified incubator at 37 °C and 5% CO2. After 48 hours, media was replaced with fresh complete RPMI medium. Cells were treated with 10 µM of experimental compound with or without 10 µM daunorubicin (DAU). After a 2-hour incubation at 37 °C and 5% CO2 in a humidified incubator, media was removed with a vacuum aspirator, and cells were washed twice with ice-cold phosphate buffered saline (PBS) solution. Cells were lysed in PBS containing 0.5% SDS and 0.5% Triton X-100 and shaken on an Orbital Shaker for 10 min at 500 rpm. […] Data are the mean ± one standard deviation from three independent experiments, 3 samples per experiment. Statistical significance was determined with a Student’s T test in GraphPad prism.
# Δ DAU Fluorescence= Fluorescence of (Compound+DAU) treated cells/Fluorescence of DAU treated cells
# These assays used the P-gp highly overexpressing DU145-TXR cell line. In this assay, the intrinsic fluorescence of DAU was used to quantify its relative concentration in the cell. An increase in fluorescence correlates with an increase in the intracellular accumulation of DAU. […] Cells were treated with 10 µM of experimental compound with or without 10 µM DAU. After a 2-hour incubation, cells were washed and lysed, and the total fluorescence of DAU in each well was quantified.
# Fig 5 Change in fluorescence of DAU in the presence of experimental compounds. Fold change in fluorescence of the P-gp substrate Daunorubicin (DAU) in the presence or absence of experimental compounds or known P-gp modulators. Cells were treated with 10 µM compound in the presence or absence of 10 µM DAU. After washing and lysing the cells, the intracellular DAU fluorescence was measured and expressed as a fold change relative to the fluorescence of DU145-TXR cells treated with DAU alone. […] Three samples per trial, three independent trials. Significance was determined using a Student’s T test of the mean by comparing fluorescence of DAU and compound to that of DAU alone; P > 0.05 = N.S., P < 0.05 = *, P < 0.01 = **, P < 0.001 = ***, P < 0.0001 = ****. Data also shown in S4 Fig.
# [1] = tested on: HFL1 (human lung fibroblast) cell line; test: MTT viability assay, inherent toxicity in non-cancerous HFL1 cells; assay type: cell-based; set-up: Mean % Survival: tested at 15 µM; settings: for Inherent toxicity to non-cancerous HFL1 cells: 15 µM compound, 48 h, MTT, 20% reduction in viability = maximum acceptable toxicity; for Mean % Survival / % Survival (individual sample): HFL1 cells, compound alone; for Mean % Survival: mean of 8 samples; for % Survival (individual sample): single samples (trials 1-2, samples 1-4)
# Experimental: The chemotherapeutic sensitive DU145 human prostate cancer cells and the multidrug resistant sub-line, DU145-TXR, were generous gifts from Dr. Evan Keller (University of Michigan, Ann Arbor, MI). The MDR, P-gp overexpressing DU145-TXR cells were maintained under positive selection pressure by supplementing complete medium with 10 nM paclitaxel (Acros Organics, NJ). […] The MDR, P-gp overexpressing A2780-ADR cell line was maintained under positive selection pressure by supplementing complete medium with 100 nM doxorubicin (Fisher Scientific, NJ). The non-cancerous HFL1 (human lung fibroblast) cell line cell line was a generous gift from Dr. Robert Harrod (Southern Methodist University, Dallas, TX) and was maintained in complete F12K media consisting of F12K with 10% fetal bovine serum, 100 U/mL penicillin, and 100 µg/mL streptomycin (Gibco). Flasks and 96 well plates that were used with the non-cancerous line HFL1 were pre-treated with 0.1 mg/ml Collagen Type 1 (Gibco) and rinsed with PBS (Fisher).
# MTT assays measure the reduction of yellow, water soluble 3-(4,5-dimethylthiazol-2-yl)-2,5-diphenyltetrazolium bromide (MTT) to blue, insoluble formazan crystals by cellular reductase processes in living cells. Cells were trypsinized from monolayers and seeded in complete medium in 96 well plates. Cancerous cell lines (DU145, DU145-TXR, A2780, A2780-ADR) were seeded at 3,000 cells per well in complete RPMI medium. The non-cancerous HFL1 line was seeded at 4,000 cells per well in complete F12K medium, in collagen-treated plates (Collagen Type 1, Gibco). Cells were incubated with experimental compounds for 48 hours at 37 °C and 5% CO2 in a humidified incubator. At 48 hours, MTT was added (20 µL/well of 5 mg/mL MTT in PBS) to each well. After incubation for 4 hours, the media was removed, and the formazan crystals were dissolved in 100 µL DMSO per well. Plates containing the semi-adherent A2780 or A2780-ADR lines were spun at 1400 rpm for 3 minutes prior to aspiration of media, and the addition of DMSO. Plates were shaken for 10 minutes at 500 rpm on an Orbital shaker (LabDoctor from MidSci, St Louis, MO). The absorbance was measured at 570 nm using a Bio-Tek Cytation 5 (Bio-Tek, Winooski, VT). The measured absorbance value was correlated with the number of metabolically active cells in that well, corrected for absorbance of media. The percent of cell viability (termed ‘survival’ here) was calculated as a percentage of survival of the control condition, which refers to vehicle-treated (DMSO as vehicle) cells, or vehicle-and-chemotherapeutic-treated cells, if testing a compound’s ability to re-sensitize cells to a chemotherapeutic. Percent survival was calculated using the following equation:
# % Survival=100 × absorbance of experimental cells/mean absorbance of control treated cells
# For DU145-TXR, DU145, HFL1 and A2780 cells – data are the mean ± one standard deviation, 8 samples per compound, from at least two independent trials per compound. […] For A2780-ADR cells, data are the mean ± one standard deviation with 12 samples per compound, from at least two independent trials per compound.
# If a P-gp inhibitor is intrinsically toxic to non-cancerous cells, it is more likely to be participating in undesirable off-target interactions. The top compounds from the screens shown above were screened for inherent toxicity using the non-cancerous HFL1 (human lung fibroblast) cell line. HFL1 cells were incubated with 15 µM compound for 48 hours, after which cell viability was assessed using MTT cell viability assays. A 20% reduction in cell viability (compared to DMSO-treated cells) was considered the maximum acceptable toxicity (see dotted line). The chemotherapeutic daunorubicin was included as a positive control for toxicity.
# The top compounds from previous screens were tested against the non-cancerous HFL1 cell line.
SMILES,Significance (DAU + compound vs DAU alone) (P-gp),Inherent toxicity to non-cancerous HFL1 cells [1],Mean % Survival [1],% Survival (individual sample) [1],Effect on DAU fluorescence / intracellular DAU retention (P-gp)
"Cn1cnnc1SCc1c(C(=O)O)nnn1-c1nonc1N [Compound 59, Cn1cnnc1SCc1c(nnn1-c1nonc1N)C(O)=O]",N.S. (P > 0.05 = N.S.),,,,
"O=C(c1nc(-c2ccc3cc[nH]c3c2)no1)N1CCN(c2nsc3ccccc23)CC1 [Compound 70, O=C(N1CCN(CC1)c1nsc2ccccc12)c1nc(no1)-c1ccc2cc[nH]c2c1]",* (P < 0.05 = *),either ‘non-toxic’ or ‘within acceptable limits’ of toxicity,81.4%,81% and 85%,
"Cc1onc(-c2ccccc2)c1-c1nnc(Cn2cnc3c(oc4ccccc43)c2=O)o1 [Compound 78, Cc1onc(c1-c1nnc(Cn2cnc3c4ccccc4oc3c2=O)o1)-c1ccccc1]",* (P < 0.05 = *),either ‘non-toxic’ or ‘within acceptable limits’ of toxicity,99.6%,102%,significant decrease in fluorescence; also recorded: did not cause an increase in intracellular DAU retention
"O=S(=O)(CCSc1nnc(-c2ccccc2)c2ccccc12)c1ccccc1 [Compound 96, O=S(=O)(CCSc1nnc(-c2ccccc2)c2ccccc12)c1ccccc1]",**** (P < 0.0001 = ****),either ‘non-toxic’ or ‘within acceptable limits’ of toxicity,92.7%,91%,
"O=S(=O)(Cc1nc2ccccc2n1CC(O)c1ccc(Cl)cc1)c1ccccc1 (stereo not drawn) [Compound 97, OC(Cn1c(CS(=O)(=O)c2ccccc2)nc2ccccc12)c1ccc(Cl)cc1]",**** (P < 0.0001 = ****),either ‘non-toxic’ or ‘within acceptable limits’ of toxicity,84.9%,85%,
"COc1cccc(N2CCN(c3ccc4nnc(CCC(=O)Nc5ccc(F)c(F)c5)n4n3)CC2)c1 [Compound 101, COc1cccc(c1)N1CCN(CC1)c1ccc2nnc(CCC(=O)Nc3ccc(F)c(F)c3)n2n1]",**** (P < 0.0001 = ****),either ‘non-toxic’ or ‘within acceptable limits’ of toxicity,100.9%,103%,
"Cc1ccc(-c2noc(-c3cn(Cc4ccc(NS(=O)(=O)c5ccccc5F)cc4)cn3)n2)cc1 [Compound 103, Cc1ccc(cc1)-c1noc(n1)-c1cn(Cc2ccc(NS(=O)(=O)c3ccccc3F)cc2)cn1]",** (P < 0.01 = **),either ‘non-toxic’ or ‘within acceptable limits’ of toxicity,93.4%,,
"Cc1onc(-c2ccccc2)c1-c1nnc(Cn2cnc3ccccc3c2=O)o1 [Compound 111, Cc1onc(c1-c1nnc(Cn2cnc3ccccc3c2=O)o1)-c1ccccc1]",N.S. (P > 0.05 = N.S.),either ‘non-toxic’ or ‘within acceptable limits’ of toxicity,96.0%,92%,did not cause an increase in intracellular DAU retention
"O=C(NCc1cccc(F)c1)c1nnn2c1Sc1c(C(=O)NCc3cccc(F)c3)nnn1CC2 [Compound 122, Fc1cccc(CNC(=O)c2nnn3CCn4nnc(C(=O)NCc5cccc(F)c5)c4Sc23)c1]",,either ‘non-toxic’ or ‘within acceptable limits’ of toxicity,79.7%,,
"O=C(c1nc(-c2ccccn2)no1)N1CCN(c2nsc3ccccc23)CC1 [Compound 124, O=C(N1CCN(CC1)c1nsc2ccccc12)c1nc(no1)-c1ccccn1]",,either ‘non-toxic’ or ‘within acceptable limits’ of toxicity,84.6%,89%,
"COc1cc2c(cc1OC)CN(CCc1ccc(NC(=O)c3cc(OC)c(OC)cc3NC(=O)c3cnc4ccccc4c3)cc1)CC2 [Tariquidar, reference compound]",**** (P < 0.0001 = ****),,,,
